In article PMC5513037, “Examining the influence of specificity ligands and ATP-competitive ligands on the overall effectiveness of bivalent kinase inhibitors” (Proteome Science, 2017):

How the values were obtained:
Test in all cases: KAM-matrix competition in K562 lysate;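 on 0.001 uM KAM: median log10 fold change of treatment over DMSO control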;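 on 0.01 uM KAM: median log10 fold change of treatment over DMSO control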;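 on 0.1 uM KAM: median log10 fold change of treatment over DMSO control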;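 on 1 uM KAM: median log10 fold change of treatment over DMSO control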;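 on 10 uM KAM: median log10 fold change of treatment over DMSO control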
Assay type in all cases: binding
MAP4K3 = biological target: T1, MAP4K3 (Homo sapiens, UniProt Q8IVH8)
T1 construct: endogenous in cells; host or cells: K562
T1 sequence (Q8IVH8 1-894): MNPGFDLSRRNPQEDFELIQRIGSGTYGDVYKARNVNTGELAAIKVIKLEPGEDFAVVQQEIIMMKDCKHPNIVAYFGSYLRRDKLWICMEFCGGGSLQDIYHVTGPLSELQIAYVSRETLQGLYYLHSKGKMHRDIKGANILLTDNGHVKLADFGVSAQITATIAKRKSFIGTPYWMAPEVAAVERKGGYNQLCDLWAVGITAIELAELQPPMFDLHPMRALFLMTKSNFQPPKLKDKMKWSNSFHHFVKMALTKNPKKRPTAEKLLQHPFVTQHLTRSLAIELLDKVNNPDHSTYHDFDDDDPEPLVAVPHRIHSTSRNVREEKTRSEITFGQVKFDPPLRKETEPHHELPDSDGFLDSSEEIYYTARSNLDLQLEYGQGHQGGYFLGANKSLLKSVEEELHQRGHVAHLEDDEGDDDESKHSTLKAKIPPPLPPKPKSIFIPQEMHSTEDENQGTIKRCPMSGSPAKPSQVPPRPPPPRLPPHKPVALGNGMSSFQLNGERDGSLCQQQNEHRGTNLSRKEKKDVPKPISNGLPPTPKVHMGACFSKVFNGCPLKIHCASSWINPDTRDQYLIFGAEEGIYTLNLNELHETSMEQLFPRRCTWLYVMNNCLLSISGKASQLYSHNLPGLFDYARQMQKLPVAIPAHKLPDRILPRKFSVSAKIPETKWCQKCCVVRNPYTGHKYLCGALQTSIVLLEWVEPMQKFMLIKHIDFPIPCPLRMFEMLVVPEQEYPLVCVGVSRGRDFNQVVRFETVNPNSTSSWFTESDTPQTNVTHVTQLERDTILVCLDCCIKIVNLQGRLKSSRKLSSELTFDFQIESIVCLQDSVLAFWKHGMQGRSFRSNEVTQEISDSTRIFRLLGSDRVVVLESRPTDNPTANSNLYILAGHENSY
Experimental: (§1) Supplement 12953_2017_125_MOESM1_ESM.zip/MS_Supp Info.xlsx, sheet "KAM" | column: 10 uM KAM; 1 uM KAM; 0.1 uM KAM; 0.01 uM KAM; 0.001 uM KAM; RB50

MAP2K2 = biological target: T2, MAP2K2 (Homo sapiens, UniProt P36507)
T2 construct: endogenous in cells; host or cells: K562
T2 sequence (P36507 whole entry): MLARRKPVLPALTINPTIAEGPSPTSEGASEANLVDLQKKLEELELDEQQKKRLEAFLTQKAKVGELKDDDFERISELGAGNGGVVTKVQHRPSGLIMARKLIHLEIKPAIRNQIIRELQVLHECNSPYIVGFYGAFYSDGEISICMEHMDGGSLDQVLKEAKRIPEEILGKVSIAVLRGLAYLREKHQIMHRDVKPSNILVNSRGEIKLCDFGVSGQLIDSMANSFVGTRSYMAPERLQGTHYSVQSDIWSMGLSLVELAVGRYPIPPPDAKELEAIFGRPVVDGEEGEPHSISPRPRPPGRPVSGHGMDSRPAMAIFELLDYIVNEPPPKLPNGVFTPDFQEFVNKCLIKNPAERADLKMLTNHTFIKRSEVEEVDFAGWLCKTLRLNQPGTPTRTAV
Experimental: as §1

STK3 = biological target: T3, STK3 (Homo sapiens, UniProt Q13188)
T3 construct: endogenous in cells; host or cells: K562 cell lysate
T3 sequence (Q13188 1-491): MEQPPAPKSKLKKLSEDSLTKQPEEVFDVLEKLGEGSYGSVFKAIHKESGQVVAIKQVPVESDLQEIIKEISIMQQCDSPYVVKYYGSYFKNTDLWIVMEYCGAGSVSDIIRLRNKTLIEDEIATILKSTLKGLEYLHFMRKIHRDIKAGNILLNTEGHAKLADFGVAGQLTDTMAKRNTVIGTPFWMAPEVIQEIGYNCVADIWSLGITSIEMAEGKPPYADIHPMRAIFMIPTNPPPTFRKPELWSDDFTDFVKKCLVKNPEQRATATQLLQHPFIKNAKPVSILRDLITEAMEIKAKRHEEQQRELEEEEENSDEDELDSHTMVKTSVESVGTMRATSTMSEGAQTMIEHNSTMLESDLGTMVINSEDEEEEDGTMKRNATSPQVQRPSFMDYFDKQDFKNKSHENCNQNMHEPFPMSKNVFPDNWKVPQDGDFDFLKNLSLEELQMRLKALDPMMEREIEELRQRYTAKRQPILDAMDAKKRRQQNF
Experimental: as §1

PRKACA = biological target: T4, PRKACA (Homo sapiens, UniProt P17612);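 on 0.001 uM KAM: median log10 fold change of treatment over DMSO control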;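 on 0.01 uM KAM: median log10 fold change of treatment over DMSO control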;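 on 0.1 uM KAM: median log10 fold change of treatment over DMSO control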;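 on 1 uM KAM: median log10 fold change of treatment over DMSO control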;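 on 10 uM KAM: median log10 fold change of treatment over DMSO control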
T4 construct: endogenous in cells; host or cells: K562 lysate
Experimental: as §1

FLT1 = biological target: T5, FLT1 (Homo sapiens, UniProt P17948);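 on 0.001 uM KAM: median log10 fold change of treatment over DMSO control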;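 on 0.01 uM KAM: median log10 fold change of treatment over DMSO control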;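 on 0.1 uM KAM: median log10 fold change of treatment over DMSO control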;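 on 1 uM KAM: median log10 fold change of treatment over DMSO control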;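 on 10 uM KAM: median log10 fold change of treatment over DMSO control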
T5 construct: endogenous in cells; host or cells: K562
T5 sequence (P17948 27-1338): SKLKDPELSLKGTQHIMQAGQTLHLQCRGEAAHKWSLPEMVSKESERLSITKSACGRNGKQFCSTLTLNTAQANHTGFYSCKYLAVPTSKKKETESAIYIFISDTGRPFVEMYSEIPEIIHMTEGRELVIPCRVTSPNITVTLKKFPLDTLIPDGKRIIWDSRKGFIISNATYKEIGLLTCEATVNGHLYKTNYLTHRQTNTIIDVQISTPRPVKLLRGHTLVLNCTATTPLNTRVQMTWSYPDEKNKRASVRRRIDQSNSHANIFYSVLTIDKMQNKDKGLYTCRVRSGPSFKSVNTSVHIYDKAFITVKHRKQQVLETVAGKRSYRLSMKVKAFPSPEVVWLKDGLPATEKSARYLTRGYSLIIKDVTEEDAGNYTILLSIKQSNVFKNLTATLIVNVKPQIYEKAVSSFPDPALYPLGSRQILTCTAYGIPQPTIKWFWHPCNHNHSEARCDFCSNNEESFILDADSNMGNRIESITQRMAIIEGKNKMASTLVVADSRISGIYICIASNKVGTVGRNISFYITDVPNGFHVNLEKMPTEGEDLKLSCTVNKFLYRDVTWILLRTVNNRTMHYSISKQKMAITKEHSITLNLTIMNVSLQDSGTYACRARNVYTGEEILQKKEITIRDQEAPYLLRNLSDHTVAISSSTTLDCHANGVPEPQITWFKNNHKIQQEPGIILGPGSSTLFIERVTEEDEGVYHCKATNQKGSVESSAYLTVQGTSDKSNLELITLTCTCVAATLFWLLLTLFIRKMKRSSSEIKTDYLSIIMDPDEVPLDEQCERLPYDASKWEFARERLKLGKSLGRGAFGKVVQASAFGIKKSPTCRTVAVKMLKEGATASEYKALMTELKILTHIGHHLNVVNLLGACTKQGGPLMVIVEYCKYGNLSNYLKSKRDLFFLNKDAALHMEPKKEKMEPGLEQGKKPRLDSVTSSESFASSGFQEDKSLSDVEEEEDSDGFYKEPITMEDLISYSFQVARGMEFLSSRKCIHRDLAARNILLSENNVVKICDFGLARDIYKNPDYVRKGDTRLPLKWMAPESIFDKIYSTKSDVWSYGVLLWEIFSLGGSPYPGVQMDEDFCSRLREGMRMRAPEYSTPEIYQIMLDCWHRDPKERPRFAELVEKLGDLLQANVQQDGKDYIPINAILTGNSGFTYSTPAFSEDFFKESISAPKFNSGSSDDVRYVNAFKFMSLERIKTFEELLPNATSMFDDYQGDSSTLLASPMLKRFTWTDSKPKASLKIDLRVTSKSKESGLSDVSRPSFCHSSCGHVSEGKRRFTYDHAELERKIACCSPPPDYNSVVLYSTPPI
Experimental: as §1

BMPR1A = biological target: T6, BMPR1A (Homo sapiens, UniProt P36894)
T6 construct: endogenous in cells; host or cells: K562
T6 sequence (P36894 24-532): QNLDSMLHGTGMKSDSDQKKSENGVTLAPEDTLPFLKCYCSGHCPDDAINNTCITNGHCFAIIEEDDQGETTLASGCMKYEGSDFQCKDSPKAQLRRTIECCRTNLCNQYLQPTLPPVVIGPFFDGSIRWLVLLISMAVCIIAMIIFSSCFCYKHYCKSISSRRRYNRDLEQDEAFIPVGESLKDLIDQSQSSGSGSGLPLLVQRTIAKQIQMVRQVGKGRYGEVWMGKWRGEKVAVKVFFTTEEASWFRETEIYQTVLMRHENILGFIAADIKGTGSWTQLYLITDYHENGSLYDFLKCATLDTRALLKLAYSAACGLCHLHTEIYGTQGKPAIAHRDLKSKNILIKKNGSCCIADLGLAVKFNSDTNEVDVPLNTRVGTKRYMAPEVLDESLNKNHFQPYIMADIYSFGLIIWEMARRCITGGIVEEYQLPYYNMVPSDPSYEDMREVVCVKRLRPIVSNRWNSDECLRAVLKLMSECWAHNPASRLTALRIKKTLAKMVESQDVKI
Experimental: as §1

DAPK1 = biological target: T7, DAPK1 (Homo sapiens, UniProt P53355);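 on 0.001 uM KAM: median log10 fold change of treatment over DMSO control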;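 on 0.01 uM KAM: median log10 fold change of treatment over DMSO control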;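 on 0.1 uM KAM: median log10 fold change of treatment over DMSO control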;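 on 1 uM KAM: median log10 fold change of treatment over DMSO control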;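 on 10 uM KAM: median log10 fold change of treatment over DMSO control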
T7 construct: endogenous in cells; host or cells: K562
T7 sequence (P53355 whole entry): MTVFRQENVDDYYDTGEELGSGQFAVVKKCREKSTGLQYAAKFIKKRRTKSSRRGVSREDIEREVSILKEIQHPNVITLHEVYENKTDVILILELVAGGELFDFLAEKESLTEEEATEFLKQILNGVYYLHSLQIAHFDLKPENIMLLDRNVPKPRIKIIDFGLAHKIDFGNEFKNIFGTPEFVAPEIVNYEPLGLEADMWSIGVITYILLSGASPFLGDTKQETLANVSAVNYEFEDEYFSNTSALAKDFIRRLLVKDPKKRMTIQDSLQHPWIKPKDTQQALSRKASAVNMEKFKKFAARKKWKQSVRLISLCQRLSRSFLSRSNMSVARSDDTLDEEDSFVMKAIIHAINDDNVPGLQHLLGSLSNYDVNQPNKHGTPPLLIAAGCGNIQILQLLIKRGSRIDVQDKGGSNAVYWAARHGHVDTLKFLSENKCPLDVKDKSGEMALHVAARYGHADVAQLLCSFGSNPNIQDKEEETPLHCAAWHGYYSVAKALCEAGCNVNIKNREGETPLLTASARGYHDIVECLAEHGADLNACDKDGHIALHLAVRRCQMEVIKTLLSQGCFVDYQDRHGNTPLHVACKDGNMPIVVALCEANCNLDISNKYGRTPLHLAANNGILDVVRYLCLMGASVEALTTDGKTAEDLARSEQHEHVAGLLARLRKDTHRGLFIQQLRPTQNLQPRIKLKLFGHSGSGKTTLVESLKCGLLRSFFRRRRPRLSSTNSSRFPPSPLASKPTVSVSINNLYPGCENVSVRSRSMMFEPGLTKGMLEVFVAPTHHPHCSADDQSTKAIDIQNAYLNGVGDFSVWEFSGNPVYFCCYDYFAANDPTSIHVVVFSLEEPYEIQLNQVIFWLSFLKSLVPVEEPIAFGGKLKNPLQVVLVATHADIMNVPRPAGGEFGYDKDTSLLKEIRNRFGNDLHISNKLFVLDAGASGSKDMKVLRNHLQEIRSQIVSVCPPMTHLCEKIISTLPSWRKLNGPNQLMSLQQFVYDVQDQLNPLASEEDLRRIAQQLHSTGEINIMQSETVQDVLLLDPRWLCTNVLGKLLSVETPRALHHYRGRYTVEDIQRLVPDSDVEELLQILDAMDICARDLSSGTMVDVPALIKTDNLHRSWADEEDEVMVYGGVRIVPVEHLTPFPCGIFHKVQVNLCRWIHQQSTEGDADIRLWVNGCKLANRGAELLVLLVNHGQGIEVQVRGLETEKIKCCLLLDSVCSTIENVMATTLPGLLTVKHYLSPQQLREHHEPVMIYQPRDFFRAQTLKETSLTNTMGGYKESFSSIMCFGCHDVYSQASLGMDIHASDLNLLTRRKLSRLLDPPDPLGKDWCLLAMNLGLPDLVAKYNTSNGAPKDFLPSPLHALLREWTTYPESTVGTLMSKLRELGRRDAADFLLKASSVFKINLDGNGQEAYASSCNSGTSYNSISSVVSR
Experimental: as §1

TP53RK = biological target: T8, TP53RK (Homo sapiens, UniProt Q96S44);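 on 0.001 uM KAM: median log10 fold change of treatment over DMSO control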;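 on 0.01 uM KAM: median log10 fold change of treatment over DMSO control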;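 on 0.1 uM KAM: median log10 fold change of treatment over DMSO control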;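 on 1 uM KAM: median log10 fold change of treatment over DMSO control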;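 on 10 uM KAM: median log10 fold change of treatment over DMSO control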
T8 construct: endogenous in cells; host or cells: K562
T8 sequence (Q96S44 1-253): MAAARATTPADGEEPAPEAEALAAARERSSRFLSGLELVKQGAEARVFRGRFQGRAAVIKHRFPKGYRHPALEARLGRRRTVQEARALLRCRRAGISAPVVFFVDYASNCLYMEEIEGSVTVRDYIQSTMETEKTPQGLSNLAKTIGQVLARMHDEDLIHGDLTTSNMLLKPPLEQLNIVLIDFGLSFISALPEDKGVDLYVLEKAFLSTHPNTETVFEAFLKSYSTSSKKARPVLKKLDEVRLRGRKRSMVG
Experimental: as §1

PRKCB = biological target: T9, PRKCB (Homo sapiens, UniProt P05771)
T9 construct: endogenous in cells; host or cells: K562
T9 sequence (P05771 whole entry): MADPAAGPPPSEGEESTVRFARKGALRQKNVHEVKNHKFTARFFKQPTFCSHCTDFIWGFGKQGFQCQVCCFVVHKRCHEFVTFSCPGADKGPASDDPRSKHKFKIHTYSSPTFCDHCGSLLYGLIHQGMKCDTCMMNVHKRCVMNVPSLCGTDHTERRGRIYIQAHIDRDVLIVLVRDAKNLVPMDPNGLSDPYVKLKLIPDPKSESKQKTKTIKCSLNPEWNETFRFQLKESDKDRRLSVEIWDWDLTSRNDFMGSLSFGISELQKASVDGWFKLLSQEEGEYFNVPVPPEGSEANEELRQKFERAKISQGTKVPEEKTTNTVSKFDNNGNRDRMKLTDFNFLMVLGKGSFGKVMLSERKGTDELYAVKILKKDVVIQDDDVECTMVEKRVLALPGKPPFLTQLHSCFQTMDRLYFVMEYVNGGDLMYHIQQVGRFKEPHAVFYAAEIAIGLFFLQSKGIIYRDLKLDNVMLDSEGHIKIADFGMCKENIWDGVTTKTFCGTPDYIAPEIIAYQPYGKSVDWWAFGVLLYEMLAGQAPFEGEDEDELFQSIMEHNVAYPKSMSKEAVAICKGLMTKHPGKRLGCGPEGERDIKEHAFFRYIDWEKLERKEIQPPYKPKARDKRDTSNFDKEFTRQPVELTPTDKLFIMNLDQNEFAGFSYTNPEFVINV
Experimental: as §1

[1] = read-out: RB50 (the source's name)
[2] = KAM 0.001-10 uM, read-out: RB50 (the source's name)

N#CCc1ccc(Nc2nc(NCCCN)cc(Nc3cc(C4CC4)[nH]n3)n2)cc1 [KAM]
median Log10 fold change (MAP4K3; 0.001 uM KAM): -0.00532
median Log10 fold change (MAP4K3; 0.01 uM KAM): -0.01342
median Log10 fold change (MAP4K3; 0.1 uM KAM): -0.1612
median Log10 fold change (MAP4K3; 1 uM KAM): -0.436
median Log10 fold change (MAP4K3; 10 uM KAM): -0.5629
IC50 (MAP4K3; [1]): 0.472 µM
median Log10 fold change (MAP2K2; 0.001 uM KAM): -0.0579
median Log10 fold change (MAP2K2; 0.01 uM KAM): -0.04236
median Log10 fold change (MAP2K2; 0.1 uM KAM): -0.2079
median Log10 fold change (MAP2K2; 1 uM KAM): -0.4376
median Log10 fold change (MAP2K2; 10 uM KAM): -0.4638
IC50 (MAP2K2; [1]): 0.36 µM
median Log10 fold change (STK3; 0.001 uM KAM): -0.01987
median Log10 fold change (STK3; 0.01 uM KAM): -0.0374
median Log10 fold change (STK3; 0.1 uM KAM): -0.2245
median Log10 fold change (STK3; 1 uM KAM): -0.1979
median Log10 fold change (STK3; 10 uM KAM): -0.3452
IC50 (STK3; [1]): 3.72 µM
IC50 (PRKACA; [2]): > 10 µM
0.001 uM KAM (PRKACA; relative to 0 uM KAM = 0): 0.01517
0.01 uM KAM (PRKACA; relative to 0 uM KAM = 0): -0.007672
0.1 uM KAM (PRKACA; relative to 0 uM KAM = 0): 0.08573
1 uM KAM (PRKACA; relative to 0 uM KAM = 0): 0.0122
10 uM KAM (PRKACA; relative to 0 uM KAM = 0): 0.04616
IC50 (FLT1; [2]): > 10 µM
0.001 uM KAM (FLT1; relative to 0 uM KAM = 0): -0.03836
0.01 uM KAM (FLT1; relative to 0 uM KAM = 0): 0.0203
0.1 uM KAM (FLT1; relative to 0 uM KAM = 0): -0.001012
1 uM KAM (FLT1; relative to 0 uM KAM = 0): -0.1879
10 uM KAM (FLT1; relative to 0 uM KAM = 0): -0.2168
median Log10 fold change (BMPR1A; 0.001 uM KAM): -0.03052
median Log10 fold change (BMPR1A; 0.01 uM KAM): -0.01848
median Log10 fold change (BMPR1A; 0.1 uM KAM): -0.1062
median Log10 fold change (BMPR1A; 1 uM KAM): -0.2213
median Log10 fold change (BMPR1A; 10 uM KAM): -0.3941
IC50 (BMPR1A; [1]): 2.7 µM
IC50 (DAPK1; [2]): > 10 µM
0.001 uM KAM (DAPK1; relative to 0 uM KAM = 0): -0.04615
0.01 uM KAM (DAPK1; relative to 0 uM KAM = 0): 0.02037
0.1 uM KAM (DAPK1; relative to 0 uM KAM = 0): -0.07451
1 uM KAM (DAPK1; relative to 0 uM KAM = 0): -0.06277
10 uM KAM (DAPK1; relative to 0 uM KAM = 0): -0.09328
IC50 (TP53RK; [2]): > 10 µM
0.001 uM KAM (TP53RK; relative to 0 uM KAM = 0): 0.009964
0.01 uM KAM (TP53RK; relative to 0 uM KAM = 0): 0.004194
0.1 uM KAM (TP53RK; relative to 0 uM KAM = 0): 0.08221
1 uM KAM (TP53RK; relative to 0 uM KAM = 0): 0.04146
10 uM KAM (TP53RK; relative to 0 uM KAM = 0): -0.01189
median Log10 fold change (PRKCB; 0.001 uM KAM): -0.003193
median Log10 fold change (PRKCB; 0.01 uM KAM): -0.01706
median Log10 fold change (PRKCB; 0.1 uM KAM): -0.1711
median Log10 fold change (PRKCB; 1 uM KAM): -0.4944
median Log10 fold change (PRKCB; 10 uM KAM): -0.6051
IC50 (PRKCB; [1]): 0.354 µM
